Where “and” joins values, the source holds several entries; their conditions need not be identical. Identical values can stand only once.
Key:
[1] = test system: C57BL/6 mice, pressure overload by transverse aortic constriction; experiment: Serial echocardiography in conscious mice with transverse aortic constriction (TAC); type: in vivo, mouse; conditions: for EF (ejection fraction) / HR (heart rate) / LV Dim (dia) / LV Dim (sys) / LV Mass (estimated, truncated ellipsoid model) / Wall Thickness: sildenafil treated
[2] = test system: C57BL/6 mice, pressure overload by transverse aortic constriction; experiment: In vivo cardiac hemodynamics by pressure-volume analysis, TAC mice; set-up: species or system mouse
Procedure: Pressure overload was produced by transverse aortic constriction.
Transthoracic two-dimensional guided M-mode echocardiography was performed in non-anesthetized mice. Measurements were done using an echocardiography system, the SEQUOIA C256 (Siemens, Munich, Del.) with the 15 MHz linear-array transducer. Intact heart hemodynamic analysis was performed as described^90. These studies employed a four-electrode pressure-volume catheter (model SPR-839, Millar Instruments) placed through the left ventricular apex in the open chest anesthetized animal and positioned along the longitudinal axis to record chamber volume by impedance and pressure by micromanometry.
All hemodynamic data were recorded using custom developed software, digitizing signals at 2 KHz. End-diastolic and end-systolic volumes were the average of volumes measured during isovolumic contraction and relaxation, respectively. ESP was the pressure at maximal chamber elastance (P/V ratio)^1. EDP was the diastolic pressure at the lower right hand corner of the pressure-volume loop. Cardiac output was determined from a perivascular flow probe (Transonics, Ithica, N.Y.) placed around the thoracic aorta. Ea was equal to the ratio of end-systolic pressure divided by stroke volume. The volume catheter signal was calibrated for both gain and offset. Gain was determined by setting the catheter-derived cardiac output (equal to pressure-volume loop width times heart rate) to that obtained from the calibrated flow probe value. Offset was determined using the hypertonic saline method Ventricular power was equal to the instantaneous product of pressure times flow, and the peak power was divided by EDV to obtain the power index PMXI^79. […] The slope of this relation Ees was normalized by heart mass and expressed per gm heart mass. Msw was derived from the linear relation between stroke work and EDV from the same set of variably loaded cardiac cycles used to derive Eesn, and is another load-independent assessment of systolic contractile function^4. Tau was obtained from the model: P=Po+ae^−t/□ . . . fitting data during isovolumic relaxation. dP/dt was derived from a digital filter (5-point weighted slope). PFR/EDV was derived from the maximal first derivative of the volume signal during early diastole, divided by EDV.

calcineurin = experiment: Calcineurin expression in TAC hearts (Western blot); type: in vivo, mouse; conditions: 1 and 9 weeks of TAC
Procedure: (§1) Protein was prepared from snap-frozen heart tissue using extraction buffer as described previously^90. Antibodies included calcineurin (1:2000 dilution, BD Transduction Laboratories (San Diego, Calif.), GSK3β, Ser9-phospho-GSK313, Akt, Ser473-phospho-Akt, ERK, Thr202/Thr204-phospho-ERK (1:1000 dilution, Cell Signaling Technology, Beverly, Mass.). Primary antibody binding was visualized by horse radish peroxidase-conjugated secondary antibodies and enhanced chemiluminescence (Pierce, Rockford, Ill.).

ERK1/2 = ERK1/2 activation in TAC hearts (Western blot); type: in vivo, mouse
Procedure: as §1

Akt = Akt activation in TAC hearts (Western blot, activity assay); type: in vivo, mouse; conditions: 1 and 9 week TAC
Procedure: as §1
(§2) PI3Kα activity was assessed by Elisa assay following immunoprecipitation of PI3K (Seize X IP Kit, Pierce) using a p85α monoclonal antibody (Cell Signaling), with activity measured by fluorescence polarization (Molecular Devices, Perkin-Elmer Victor 3 plate reader). Akt activity (IP with s473-pAkt Ab, GSK-3 fusion protein substrate) was performed using a commercial kit (Cell Signaling Technology, Beverly, Mass.). PKG-1 activity was assayed by calorimetric analysis, CycLex (Clinisciences, Montrouge, FR) from whole heart lysates.

PI3Kα = PI3Kα activity in TAC hearts; type: in vivo, mouse; conditions: 3 week TAC
Procedure: as §2

PKG-1 = PKG-1 activity in isolated adult myocytes; type: cell-based, mouse; set-up: concentration or dose not given beside the values
Procedure: After 10 min, cells were lysed and PKG-1 activity determined.

NOS3 = NOS3 dimer/monomer Western blot in TAC hearts; type: in vivo, mouse; conditions: 3 weeks TAC
[3] = inhibitor combined with isoproterenol

Structure (SMILES): CCCc1nn(C)c2c(=O)[nH]c(-c3cc(S(=O)(=O)N4CCN(C)CC4)ccc3OCC)nc12 [sildenafil]
- serial echocardiography, established hypertrophy ([1]; 1-week TAC, then 2 weeks treatment): gradual decline in LV mass and wall thickness, with preservation of systolic ejection
- EF (ejection fraction) ([1]; Control (sham)): 96.5 ± 0.2%
- HR (heart rate) ([1]; Control (sham)): 634 ± 9 min⁻¹
- LV Dim (dia) ([1]; Control (sham)): 2.87 ± 0.09 mm
- LV Dim (sys) ([1]; Control (sham)): 0.89 ± 0.05 mm
- LV Mass (estimated, truncated ellipsoid model) ([1]; Control (sham)): 59.1 ± 5.6 mg
- Wall Thickness ([1]; Control (sham)): 0.71 ± 0.02 mm
- EF (ejection fraction) ([1]; TAC-3 wks): 93.4 ± 1.1 %
- HR (heart rate) ([1]; TAC-3 wks): 595 ± 7 min⁻¹
- LV Dim (dia) ([1]; TAC-3 wks): 3.09 ± 0.06 mm
- LV Dim (sys) ([1]; TAC-3 wks): 1.17 ± 0.08 mm
- LV Mass (estimated, truncated ellipsoid model) ([1]; TAC-3 wks): 82.2 ± 5.0 mg
- Wall Thickness ([1]; TAC-3 wks): 0.82 ± 0.02 mm
- EF (ejection fraction) ([1]; TAC-6 wks): 74.9 ± 7.1 %
- HR (heart rate) ([1]; TAC-6 wks): 617 ± 18 min⁻¹
- LV Dim (dia) ([1]; TAC-6 wks): 3.67 ± 0.24 mm
- LV Dim (sys) ([1]; TAC-6 wks): 2.24 ± 0.37 mm
- LV Mass (estimated, truncated ellipsoid model) ([1]; TAC-6 wks): 115.6 ± 14.2 mg
- Wall Thickness ([1]; TAC-6 wks): 0.86 ± 0.03 mm
- EF (ejection fraction) ([1]; TAC-9 wks): 71.7 ± 9.9 %
- HR (heart rate) ([1]; TAC-9 wks): 608 ± 25 min⁻¹
- LV Dim (dia) ([1]; TAC-9 wks): 4.14 ± 0.36 mm
- LV Dim (sys) ([1]; TAC-9 wks): 2.54 ± 0.57 mm
- LV Mass (estimated, truncated ellipsoid model) ([1]; TAC-9 wks): 142.5 ± 21.5 mg
- Wall Thickness ([1]; TAC-9 wks): 0.86 ± 0.03 mm
- CO (cardiac output) ([2]; 3 wk TAC + Delay (2 wk) Sil): 10.7 ± 0.5 mL/min
- EDP (LV end-diastolic pressure) ([2]; 3 wk TAC + Delay (2 wk) Sil): 7.5 ± 0.6 mmHg
- EDV (LV end-diastolic volume) ([2]; 3 wk TAC + Delay (2 wk) Sil): 29.4 ± 2.0 µL
- EF (ejection fraction) ([2]; 3 wk TAC + Delay (2 wk) Sil): 64.0 ± 4.7%
- ESP (LV end-systolic pressure) ([2]; 3 wk TAC + Delay (2 wk) Sil): 184.0 ± 9.1 (b) mmHg
- ESV (LV end-systolic volume) ([2]; 3 wk TAC + Delay (2 wk) Sil): 10.9 ± 2.1 µL
- Ea (effective arterial elastance) ([2]; 3 wk TAC + Delay (2 wk) Sil): 9.9 ± 0.6 (b) mmHg/μL
- Eesn (end-systolic elastance normalized to heart mass) ([2]; 3 wk TAC + Delay (2 wk) Sil): 111.0 ± 31.4 mmHg/μL/g
- HR (heart rate) ([2]; 3 wk TAC + Delay (2 wk) Sil): 574.6 ± 21.7 MIN^−
- Msw (preload recruitable stroke work) ([2]; 3 wk TAC + Delay (2 wk) Sil): 171.3 ± 27.6 (i) mmHg
- PFR/EDV (peak diastolic filling rate normalized to EDV) ([2]; 3 wk TAC + Delay (2 wk) Sil): 30.6 ± 3.6 s⁻¹
- Tau (time constant of pressure relaxation) ([2]; 3 wk TAC + Delay (2 wk) Sil): 7.5 ± 0.3 M·s
- dP/dtmax (maximal rate of pressure rise) ([2]; 3 wk TAC + Delay (2 wk) Sil): 14879 ± 898 mmHg/s
- dP/dtmin (peak rate of LV pressure decline) ([2]; 3 wk TAC + Delay (2 wk) Sil): −14325 ± 445 (j) mmHg/s
- dP/dtmx/IP (dP/dtmax normalized to instantaneous developed pressure) ([2]; 3 wk TAC + Delay (2 wk) Sil): 209.4 ± 11.1 s⁻¹
- CO (cardiac output) ([2]; 3 wk TAC + Sil): 9.4 ± 0.5 mL/min
- EDP (LV end-diastolic pressure) ([2]; 3 wk TAC + Sil): 7.6 ± 1.4 mmHg
- EDV (LV end-diastolic volume) ([2]; 3 wk TAC + Sil): 22.2 ± 1.5 µL
- EF (ejection fraction) ([2]; 3 wk TAC + Sil): 72.6 ± 5.7%
- ESP (LV end-systolic pressure) ([2]; 3 wk TAC + Sil): 163.6 ± 5.6 (b) mmHg
- ESV (LV end-systolic volume) ([2]; 3 wk TAC + Sil): 6.4 ± 1.7 µL
- Ea (effective arterial elastance) ([2]; 3 wk TAC + Sil): 10.5 ± 0.8 (b) mmHg/μL
- Eesn (end-systolic elastance normalized to heart mass) ([2]; 3 wk TAC + Sil): 133.0 ± 25.1 (i) mmHg/μL/g
- HR (heart rate) ([2]; 3 wk TAC + Sil): 598.8 ± 23.8 MIN^−
- Msw (preload recruitable stroke work) ([2]; 3 wk TAC + Sil): 162.5 ± 10.5 (i) mmHg
- PFR/EDV (peak diastolic filling rate normalized to EDV) ([2]; 3 wk TAC + Sil): 43.1 ± 4.9 (k) sec^−1
- Tau (time constant of pressure relaxation) ([2]; 3 wk TAC + Sil): 6.3 ± 0.4 M·s
- dP/dtmax (maximal rate of pressure rise) ([2]; 3 wk TAC + Sil): 18638 ± 1379 (f) mmHg/s
- dP/dtmin (peak rate of LV pressure decline) ([2]; 3 wk TAC + Sil): −16758 ± 917 (f) mmHg/s
- dP/dtmx/IP (dP/dtmax normalized to instantaneous developed pressure) ([2]; 3 wk TAC + Sil): 256.5 ± 8.4 g/s
- CO (cardiac output) ([2]; Sildenafil 3 wk, no TAC): 11.1 ± 1.1 mL/min
- EDP (LV end-diastolic pressure) ([2]; Sildenafil 3 wk, no TAC): 6.5 ± 1.0 mmHg
- EDV (LV end-diastolic volume) ([2]; Sildenafil 3 wk, no TAC): 32.8 ± 2.3 µL
- EF (ejection fraction) ([2]; Sildenafil 3 wk, no TAC): 61.4 ± 6.1%
- ESP (LV end-systolic pressure) ([2]; Sildenafil 3 wk, no TAC): 101.5 ± 2.6 mmHg
- ESV (LV end-systolic volume) ([2]; Sildenafil 3 wk, no TAC): 13.0 ± 2.7 µL
- Ea (effective arterial elastance) ([2]; Sildenafil 3 wk, no TAC): 5.3 ± 0.5 mmHg/μL
- Eesn (end-systolic elastance normalized to heart mass) ([2]; Sildenafil 3 wk, no TAC): 47.6 ± 5.8 mmHg/μL/g
- HR (heart rate) ([2]; Sildenafil 3 wk, no TAC): 558.5 ± 22.9 MIN^−
- Msw (preload recruitable stroke work) ([2]; Sildenafil 3 wk, no TAC): 84.0 ± 5.7 mmHg
- PFR/EDV (peak diastolic filling rate normalized to EDV) ([2]; Sildenafil 3 wk, no TAC): 34.1 ± 1.9 s⁻¹
- Tau (time constant of pressure relaxation) ([2]; Sildenafil 3 wk, no TAC): 7.6 ± 0.4 M·s
- dP/dtmax (maximal rate of pressure rise) ([2]; Sildenafil 3 wk, no TAC): 11843 ± 681 mmHg/s
- dP/dtmin (peak rate of LV pressure decline) ([2]; Sildenafil 3 wk, no TAC): −10689 ± 399 mmHg/s
- dP/dtmx/IP (dP/dtmax normalized to instantaneous developed pressure) ([2]; Sildenafil 3 wk, no TAC): 183.7 ± 6.9 s⁻¹
- calcineurin protein expression (calcineurin): significantly reduced
- ERK1/2 activation (phospho/total) (ERK1/2; 1-week TAC): suppressed
- ERK1/2 activation (phospho/total) (ERK1/2; 9-weeks TAC): no demonstrable effect
- TAC-increased Akt activity (Akt): suppressed this response at both time points to near baseline
- TAC-increased PI3Kα activity (PI3Kα): suppressed
- enhancement of PKG-1 activity (PKG-1; basal conditions, inhibitor alone): ~10%
- rise in PKG-1 activity (PKG-1; [3]): 50% and 70%
- rise in PKG-1 activity over ISO alone (PKG-1; [3]): 30%
- NOS3 dimer (280 kD) level (NOS3): prevented the loss of NOS dimer
